Test results as given in patent publication US20250214986A1, “P2X3 INHIBITOR COMPOUND, SALT THEREOF, POLYMORPH THEREOF AND USE THEREOF” (HUMANWELL HEATHCARE (GROUP) CO., LTD., priority 2022, published 2025).

How the values were obtained:
[1] = Pharmacokinetic assay in mice; type: in vivo, male ICR mice; conditions: male, ICR, mouse, plasma, mice, oral intragastric administration, 10 mg/kg
Experimental: Pharmacokinetic assay in mice was performed, wherein the mice used were male ICR mice weighing 20-25 g and fasted overnight. 3 mice were taken and given the compound by oral intragastric administration at 10 mg/kg, and blood was collected before administration and at 15 min, 30 min, 1 h, 2 h, 4 h, 8 h, and 24 h after administration. The blood samples were centrifuged at 6800 g at 2-8° C. for 6 min, and plasma was collected and stored at −80° C. […] The mixture was vortexed for 1 min and then centrifuged at 13000 rpm at 4° C. for 10 min. The supernatant was taken, and 3 times its amount of water was added for mixing. A proper amount of the resulting mixture was taken for LC-MS/MS analysis. The major pharmacokinetic parameters were analyzed using a non-compartmental model in the WinNonlin 7.0 software.

[2] = system: citric acid/histamine-stimulated cough model; assay: Cough efficacy assay of histamine/citric acid in guinea pigs; type: in vivo; conditions: histamine/citric acid nebulization, intranasal instillation
Experimental: (§1) Before enrollment, the animals were acclimatized for 3-7 days. Once their body weight reached the standard (300-400 g), they were numbered and randomly grouped. 0.25-24 h before the start of the cough assessment, the compound or excipient was administered to the guinea pigs via intranasal instillation. The dose range for the administration of the test substance was 0.17-1.5 mg/kg. During the cough assessment, after the animals were acclimated in a whole-body plethysmography box, they were given histamine nebulization, followed by citric acid nebulization. The number of coughs and the cough latency of the animals were recorded within 22 min from the start of the histamine nebulization until the end of the observation period. For the statistics of experimental data, the one-way ANOVA method was used to analyze and compare the data of the groups. Statistical analysis results with p<0.05 were considered to indicate significant differences. Pairwise comparisons were performed using the t-test method to assess differences.

[3] = system: citric acid/ATP-stimulated cough model; assay: Cough efficacy assay of ATP/citric acid in guinea pigs; type: in vivo; conditions: ATP/citric acid nebulization, intranasal instillation
Experimental: as §1, with “ATP” for “histamine”, “and after a few minutes, they were given” for “followed by”, “15” for “22”, “citric acid nebulization. The” for “histamine nebulization until the end of the observation period. For the statistics of experimental data, the”

[4] = Competitive suspension tests of free base crystalline forms A/B; type: physicochemical
Experimental: In order to confirm the thermodynamic transformation relationship between the anhydrous free base crystalline forms A and B under different temperature conditions, competitive suspension tests in n-heptane and toluene at room temperature and 50° C. were set up.

[5] = Hygroscopicity by dynamic vapor sorption (DVS); type: physicochemical
Experimental: Dynamic vapor sorption (DVS) curves were acquired on a DVS IntrInsic from Surface Measurement Systems (SMS). The relative humidity at 25° C. was corrected with the deliquescence points of LiCl, Mg(NO3)2, and KCl.
Starting at 0% RH, the test acquired the percentage changes in mass of the samples when the humidity changed (0% RH to 95% RH to 0% RH) at a constant temperature of 25° C.

[6] = Dynamic solubility experiment at 37° C.; type: physicochemical
Experimental: In the test, the purity, dynamic solubility and stability were tested using an Agilent 1260 high-performance liquid chromatograph, the molar ratio of salt-forming ions was tested using ion chromatography, and the analytical conditions are shown in Tables A-4 and A-5 below.
Solids at a feeding concentration of 10 mg/mL (calculated based on free base) were rotationally mixed with corresponding vehicles at 37° C. […] After sampling at each time point, the samples were centrifuged (at 10000 rpm) and filtered (through a 0.45 μm PTFE filter head). The HPLC concentrations and pH values of the filtrates were determined.
100.2 mg of NaCl and 50.3 mg of Triton X-100 were weighed into a 50 mL volumetric flask and then completely dissolved by addition of purified water. 816 μL of 1 M hydrochloric acid was added, and the pH was adjusted to 1.8 with 1 M hydrochloric acid or 1 M NaOH solution. The mixed solution was brought to the volume by addition of purified water.
170.5 mg of anhydrous NaH2PO4, 22.2 mg of NaOH, and 310.9 mg of NaCl were weighed into a 50 mL volumetric flask and then completely dissolved by addition of purified water. The pH was adjusted to 6.5 with 1 M hydrochloric acid or 1 M NaOH solution. The mixed solution was brought to the volume by addition of purified water. Subsequently, 55.1 mg of SIF powder was weighed into a 25 mL volumetric flask and completely dissolved with the above solution, and the mixed solution was brought to the volume.
0.21 mL of glacial acetic acid, 101.6 mg of NaOH, and 295.4 mg of NaCl were added into a 25 mL volumetric flask and then completely dissolved by addition of about 20 mL of purified water. The pH was adjusted to 5.0 with 1 M hydrochloric acid or 1 M NaOH solution. The mixed solution was brought to the volume by addition of purified water, and then 280.8 mg of SIF powder was weighed into the flask and completely dissolved.

[7] = Solid state stability (XRPD and HPLC); type: physicochemical
Experimental: In the test, the purity, dynamic solubility and stability were tested using an Agilent 1260 high-performance liquid chromatograph, the molar ratio of salt-forming ions was tested using ion chromatography, and the analytical conditions are shown in Tables A-4 and A-5 below. [table]

[8] = 25° C./60% RH/uncovered, 1 month
[9] = 25° C./60% RH/uncovered, 1 week
[10] = 40° C./75% RH/uncovered, 1 month
[11] = 40° C./75% RH/uncovered, 1 week

Cc1cnc(-c2cc(O[C@@H]3CCOC3)cc(C(=O)N[C@H](C)c3cnc(C(F)(F)F)nc3)c2)s1 [Control compound 1, reference compound]
AUC(0-t) [1]: 5200 ng·h/mL
Cmax [1]: 1250 ng/mL
Tmax [1]: 0.5 h
half-life ([1]; read-out: T½ (converted)): 2.41 h
Cough inhibition rate vs. vehicle (%) [2]: 57.1%
Mean number of coughs within 15 min [2]: 11.4
Cough inhibition rate vs. vehicle (%) [3]: 59.1%
Mean number of coughs within 15 min [3]: 8.1

Cc1cnc(-c2cc(O[C@@H](C)[C@@H](C)O)cc(C(=O)N[C@H](C)c3cnc(C(F)(F)F)nc3)c2F)s1 [Free base crystalline forms A + B]
Resulting crystalline form after competitive suspension ([4]; Toluene, 50° C., 2 d): Free base crystalline form A
Resulting crystalline form after competitive suspension ([4]; Toluene, RT, 5 d): Free base crystalline form A
Resulting crystalline form after competitive suspension ([4]; n-Heptane, 50° C., 2 d): Free base crystalline form A
Resulting crystalline form after competitive suspension ([4]; n-Heptane, RT, 42 d): Free base crystalline form A

Cc1cnc(-c2cc(O[C@@H](C)[C@@H](C)O)cc(C(=O)N[C@H](C)c3cnc(C(F)(F)F)nc3)c2F)s1 [Crystalline form A of p-toluenesulfonate]
crystalline form after DVS test ([5]; 0% RH to 95% RH to 0% RH, 25° C.): remained unchanged
vapor sorption ([5]; 25° C./80% RH): about 0.12%
hygroscopicity ([5]; DVS, 25° C./80% RH): almost no hygroscopicity
Crystalline form change ([6]; FaSSIF, 1 h): Yes^b′ (transformed to free base crystalline form B + additional diffraction peaks)
S: solubility ([6]; FaSSIF, 1 h): 28 µg/mL
pH of filtrate ([6]; FaSSIF, 1 h): 2.6
Crystalline form change ([6]; FaSSIF, 4 h): Yes^a′
S: solubility ([6]; FaSSIF, 4 h): 13 µg/mL
pH of filtrate ([6]; FaSSIF, 4 h): 2.6
Crystalline form change ([6]; FaSSIF, 24 h): Yes^a′
S: solubility ([6]; FaSSIF, 24 h): 6 µg/mL
pH of filtrate ([6]; FaSSIF, 24 h): 2.6
Crystalline form change ([6]; FeSSIF, 1 h): Yes^b′ (transformed to free base crystalline form B + additional diffraction peaks)
S: solubility ([6]; FeSSIF, 1 h): 95 µg/mL
pH of filtrate ([6]; FeSSIF, 1 h): 4.8
Crystalline form change ([6]; FeSSIF, 4 h): Yes^b (transformed to free base crystalline form B)
S: solubility ([6]; FeSSIF, 4 h): 81 µg/mL
pH of filtrate ([6]; FeSSIF, 4 h): 4.8
Crystalline form change ([6]; FeSSIF, 24 h): Yes^a′
S: solubility ([6]; FeSSIF, 24 h): 28 µg/mL
pH of filtrate ([6]; FeSSIF, 24 h): 4.8
Crystalline form change ([6]; H2O, 1 h): Yes^a
S: solubility ([6]; H2O, 1 h): 6 µg/mL
pH of filtrate ([6]; H2O, 1 h): 1.8
Crystalline form change ([6]; H2O, 4 h): Yes^a
S: solubility ([6]; H2O, 4 h): 5 µg/mL
pH of filtrate ([6]; H2O, 4 h): 1.8
Crystalline form change ([6]; H2O, 24 h): Yes^a
S: solubility ([6]; H2O, 24 h): 5 µg/mL
pH of filtrate ([6]; H2O, 24 h): 1.8
Crystalline form change ([6]; SGF, 1 h): Yes^b′ (transformed to free base crystalline form B + additional diffraction peaks)
S: solubility ([6]; SGF, 1 h): 37 µg/mL
pH of filtrate ([6]; SGF, 1 h): 1.5
Crystalline form change ([6]; SGF, 4 h): Yes^a+b′
S: solubility ([6]; SGF, 4 h): 33 µg/mL
pH of filtrate ([6]; SGF, 4 h): 1.5
Crystalline form change ([6]; SGF, 24 h): Yes^a′
S: solubility ([6]; SGF, 24 h): 12 µg/mL
pH of filtrate ([6]; SGF, 24 h): 1.5
1-hour solubility in the three biological vehicles other than H2O compared with the other forms ([6]; SGF, FaSSIF, FeSSIF, 1 h): highest 1-hour solubility
HPLC Purity (area %) [7, 8]: 99.92 area %
HPLC purity Relative to starting (%) [7, 8]: 100.00%
HPLC Purity (area %) [7, 9]: 99.92 area %
HPLC purity Relative to starting (%) [7, 9]: 100.00%
HPLC Purity (area %) [7, 10]: 99.92 area %
HPLC purity Relative to starting (%) [7, 10]: 100.00%
HPLC Purity (area %) [7, 11]: 99.92 area %
HPLC purity Relative to starting (%) [7, 11]: 100.00%
change of HPLC purity after placement under the corresponding conditions ([7]; 60° C. sealed 1 day, 25° C./60% RH and 40° C./75% RH uncovered 1 week/1 month): no significant change
HPLC Purity (area %) ([7]; 60° C./sealed, 1 day): 99.92 area %
HPLC purity Relative to starting (%) ([7]; 60° C./sealed, 1 day): 100.00%
HPLC Purity (area %) ([7]; Starting): 99.92 area %
